This is an account of results in patent US9328112B2, “Tetracyclic CDK9 kinase inhibitors” (AbbVie Inc., priority 2014, dated 2016).

For test [1], the target named is CDK9/Cyclin T1 (Homo sapiens (Human), UniProt P50750). The test is described as follows: CDK9 enzyme assay (LANCE ULight TR-FRET kinase assay). The test is classed as biochemical. Particulars: 1000 μM ATP, 100 nM ULight MBP, kinase reaction 1 hour. The method, boiled down: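 TR-FRET readout (ex 320 nm; em 615/665 nm) after 1 h detection with 0.5 nM europium anti-phospho-MBP antibody in 20 mM EDTA stop buffer. Preceding 1 h kinase step: CDK9/Cyclin T1, ULight-MBP substrate at 100 nM, ATP at 1000 μM, compound pre-diluted in DMSO then buffer.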
Chain of CDK9/Cyclin T1 (P50750 whole entry): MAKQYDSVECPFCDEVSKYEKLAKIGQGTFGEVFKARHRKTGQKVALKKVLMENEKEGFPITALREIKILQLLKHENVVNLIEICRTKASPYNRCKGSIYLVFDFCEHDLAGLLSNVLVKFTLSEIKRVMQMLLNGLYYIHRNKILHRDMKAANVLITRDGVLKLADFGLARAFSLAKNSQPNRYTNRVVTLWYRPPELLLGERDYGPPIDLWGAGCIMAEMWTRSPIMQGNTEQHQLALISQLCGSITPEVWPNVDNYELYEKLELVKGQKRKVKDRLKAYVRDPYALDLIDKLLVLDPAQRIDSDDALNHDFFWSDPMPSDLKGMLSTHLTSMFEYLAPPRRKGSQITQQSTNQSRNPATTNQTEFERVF
Chain of CDK9/Cyclin T1 (O60563 whole entry partner): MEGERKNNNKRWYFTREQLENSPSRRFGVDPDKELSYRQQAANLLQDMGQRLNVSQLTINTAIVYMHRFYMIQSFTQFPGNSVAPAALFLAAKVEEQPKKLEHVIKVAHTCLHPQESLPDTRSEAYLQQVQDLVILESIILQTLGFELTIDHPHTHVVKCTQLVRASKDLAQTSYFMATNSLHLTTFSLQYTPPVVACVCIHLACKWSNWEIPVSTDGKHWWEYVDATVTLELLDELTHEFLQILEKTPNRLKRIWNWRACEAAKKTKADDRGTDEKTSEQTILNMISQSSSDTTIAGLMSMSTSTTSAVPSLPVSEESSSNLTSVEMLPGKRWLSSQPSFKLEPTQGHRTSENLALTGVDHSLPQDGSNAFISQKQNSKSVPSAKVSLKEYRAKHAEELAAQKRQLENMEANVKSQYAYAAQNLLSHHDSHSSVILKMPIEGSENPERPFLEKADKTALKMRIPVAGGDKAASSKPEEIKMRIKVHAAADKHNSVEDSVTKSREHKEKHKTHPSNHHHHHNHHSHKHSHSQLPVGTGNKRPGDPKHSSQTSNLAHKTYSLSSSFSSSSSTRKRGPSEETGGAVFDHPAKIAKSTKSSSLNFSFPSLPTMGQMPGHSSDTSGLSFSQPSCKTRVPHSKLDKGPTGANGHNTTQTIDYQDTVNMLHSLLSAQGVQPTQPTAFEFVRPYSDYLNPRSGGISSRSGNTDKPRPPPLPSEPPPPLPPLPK

In test [2] the test system is H929 cells. Nature of the test: Cell viability assay (Cell TiterGlo). The test is classed as cell-based. Conditions: Cell TiterGlo luminescence. As to the method: The cell viability assay was performed using H929 cells. Cells were seeded in 96-well plates at 10,000 cells/well and, after overnight incubation, treated with compounds in a dose response of 3-fold dilutions from 10 μM to 0.005 μM ([…], 0.1% final DMSO concentration). After 24 hours at 37° C., cell viability was measured using Cell TiterGlo reagent (Promega) with a luminescence reader.

The mark [3] stands for this setting: Homo sapiens, NCI-H929, 24 hours at 37° C.

Consider `CN1Cc2c(C3=CCN(CC(=O)O)CC3(C)C)[nH]c3nccc(c23)-c2cc(F)ccc21` [Example 111, [4-(10-fluoro-7-methyl-6,7-dihydro-4H-3,4,7-triazadibenzo[cd,f]azulen-5-yl)-3,3-dimethyl-3,6-dihydropyridin-1(2H)-yl]acetic acid], for which the IC50 in test [1] is 1600 nM; in test [2] (setting [3]), 5500 nM.
In the same order, the values of `CN1Cc2c(C3=CCN(S(C)(=O)=O)CC3(C)C)[nH]c3nccc(c23)-c2cc(F)ccc21` [Example 113, 5-[3,3-dimethyl-1-(methylsulfonyl)-1,2,3,6-tetrahydropyridin-4-yl]-10-fluoro-7-methyl-6,7-dihydro-4H-3,4,7-triazadibenzo[cd,f]azulene] are 650 nM and 2700 nM.
For `CN(C)C(=O)CN1CC=C(c2[nH]c3nccc4c3c2CN(C)c2ccc(F)cc2-4)C(C)(C)C1` [Example 114, 2-[4-(10-fluoro-7-methyl-6,7-dihydro-4H-3,4,7-triazadibenzo[cd,f]azulen-5-yl)-3,3-dimethyl-3,6-dihydropyridin-1(2H)-yl]-N,N-dimethylacetamide], the half-maximal inhibitory concentration (IC50) in test [1] turned out to be 870 nM; in test [2] (setting [3]) it was 3400 nM.
As for `CN1Cc2c(C3=CCN(CC(=O)N4CCC[C@H]4CO)CC3(C)C)[nH]c3nccc(c23)-c2cc(F)ccc21` [Example 115, 2-[4-(10-fluoro-7-methyl-6,7-dihydro-4H-3,4,7-triazadibenzo[cd,f]azulen-5-yl)-3,3-dimethyl-3,6-dihydropyridin-1(2H)-yl]-1-[(2S)-2-(hydroxymethyl)pyrrolidin-1-yl]ethanone], the 50% inhibitory concentration (IC50) in test [1] is 950 nM; in test [2] (setting [3]), 2600 nM.
Taken in the same sequence, the figures for `CN(CCO)C(=O)CN1CC=C(c2[nH]c3nccc4c3c2CN(C)c2ccc(F)cc2-4)C(C)(C)C1` [Example 116, 2-[4-(10-fluoro-7-methyl-6,7-dihydro-4H-3,4,7-triazadibenzo[cd,f]azulen-5-yl)-3,3-dimethyl-3,6-dihydropyridin-1(2H)-yl]-N-(2-hydroxyethyl)-N-methylacetamide] were 890 nM and 1700 nM.
Taken in the same sequence, the figures for `CN1Cc2c(C3=CCN(CC(=O)N4CC(O)C4)CC3(C)C)[nH]c3nccc(c23)-c2cc(F)ccc21` [Example 117, 2-[4-(10-fluoro-7-methyl-6,7-dihydro-4H-3,4,7-triazadibenzo[cd,f]azulen-5-yl)-3,3-dimethyl-3,6-dihydropyridin-1(2H)-yl]-1-(3-hydroxyazetidin-1-yl)ethanone] were 960 nM and 2400 nM.
Taken in the same sequence, the figures for `CN1Cc2c(C3=CCN(CC(=O)N(C)C4CC(O)C4)CC3(C)C)[nH]c3nccc(c23)-c2cc(F)ccc21` (stereo not shown) [Example 118, 2-[4-(10-fluoro-7-methyl-6,7-dihydro-4H-3,4,7-triazadibenzo[cd,f]azulen-5-yl)-3,3-dimethyl-3,6-dihydropyridin-1(2H)-yl]-N-(3-hydroxycyclobutyl)-N-methylacetamide] were 1200 nM and 2600 nM.
With `CN(CC(O)CO)C(=O)CN1CC=C(c2[nH]c3nccc4c3c2CN(C)c2ccc(F)cc2-4)C(C)(C)C1` (stereo not shown) [Example 119, N-(2,3-dihydroxypropyl)-2-[4-(10-fluoro-7-methyl-6,7-dihydro-4H-3,4,7-triazadibenzo[cd,f]azulen-5-yl)-3,3-dimethyl-3,6-dihydropyridin-1(2H)-yl]-N-methylacetamide], the IC50 in test [1] amounted to 1300 nM; in test [2] (setting [3]), 2400 nM.
In the same order, the values of `CN1Cc2c(C3=CCCN(CC(=O)N4CCC[C@H]4CO)C3)[nH]c3nccc(c23)-c2cc(F)ccc21` [Example 120, 2-[5-(10-fluoro-7-methyl-6,7-dihydro-4H-3,4,7-triazadibenzo[cd,f]azulen-5-yl)-3,6-dihydropyridin-1(2H)-yl]-1-[(2S)-2-(hydroxymethyl)pyrrolidin-1-yl]ethanone] are 480 nM and 2100 nM.
On to `CN1Cc2c(C3=CCCN(CC(=O)N4CC(O)C4)C3)[nH]c3nccc(c23)-c2cc(F)ccc21` [Example 121, 2-[5-(10-fluoro-7-methyl-6,7-dihydro-4H-3,4,7-triazadibenzo[cd,f]azulen-5-yl)-3,6-dihydropyridin-1(2H)-yl]-1-(3-hydroxyazetidin-1-yl)ethanone], for which the concentration for half-maximal inhibition (IC50) in test [1] stood at 160 nM; in test [2] (setting [3]), 1100 nM.
For the molecule `CN1Cc2c(C3=CCCN(CC(=O)N(C)C4CC(O)C4)C3)[nH]c3nccc(c23)-c2cc(F)ccc21` (stereo not shown) [Example 122, 2-[5-(10-fluoro-7-methyl-6,7-dihydro-4H-3,4,7-triazadibenzo[cd,f]azulen-5-yl)-3,6-dihydropyridin-1(2H)-yl]-N-(3-hydroxycyclobutyl)-N-methylacetamide], the concentration for half-maximal inhibition (IC50) in test [1] was 420 nM; in test [2] (setting [3]), 1400 nM.
Consider `CN(CC(O)CO)C(=O)CN1CCC=C(c2[nH]c3nccc4c3c2CN(C)c2ccc(F)cc2-4)C1` (stereo not shown) [Example 123, N-(2,3-dihydroxypropyl)-2-[5-(10-fluoro-7-methyl-6,7-dihydro-4H-3,4,7-triazadibenzo[cd,f]azulen-5-yl)-3,6-dihydropyridin-1(2H)-yl]-N-methylacetamide], for which the IC50 in test [1] was determined as 540 nM; in test [2] (setting [3]), 3100 nM.
Taken in the same sequence, the figures for `CN1Cc2c(C3=CCN([C@H]4CC[C@@H](CC(=O)O)CC4)CC3)[nH]c3nccc(c23)-c2cc(F)ccc21` [Example 124, {cis-4-[4-(10-fluoro-7-methyl-6,7-dihydro-4H-3,4,7-triazadibenzo[cd,f]azulen-5-yl)-3,6-dihydropyridin-1(2H)-yl]cyclohexyl}acetic acid] were 48 nM and 88 nM.
In the same order, the values of `CN1Cc2c(C3=C[C@@H]4COC(=O)N4CC3)[nH]c3nccc(c23)-c2cc(F)c(F)cc21` [Example 125, (8aR)-7-(9,10-difluoro-7-methyl-6,7-dihydro-4H-3,4,7-triazadibenzo[cd,f]azulen-5-yl)-1,5,6,8a-tetrahydro[1,3]oxazolo[3,4-a]pyridin-3-one] are 54 nM and 300 nM.
In the same order, the values of `CN1Cc2c(C3=C[C@H](CO)NCC3)[nH]c3nccc(c23)-c2cc(F)c(F)cc21` [Example 126, [(2R)-4-(9,10-difluoro-7-methyl-6,7-dihydro-4H-3,4,7-triazadibenzo[cd,f]azulen-5-yl)-1,2,5,6-tetrahydropyridin-2-yl]methanol] are 58 nM and 39 nM.
Take `CN1CCc2c(C3=CCNCC3)[nH]c3nccc(c23)-c2cc(F)ccc21` [Example 127, 8-fluoro-5-methyl-2-(1,2,3,6-tetrahydropyridin-4-yl)-1,3,4,5-tetrahydro-1,5,12-triazabenzo[4,5]cycloocta[1,2,3-cd]indene]: the concentration for half-maximal inhibition (IC50) in test [1] came to 26 nM; in test [2] (24 hours at 37° C.), 100 nM.
In the same order, the values of `CN1CCc2c(C3=CCN(S(C)(=O)=O)CC3)[nH]c3nccc(c23)-c2cc(F)ccc21` [Example 128, 8-fluoro-5-methyl-2-[1-(methylsulfonyl)-1,2,3,6-tetrahydropyridin-4-yl]-1,3,4,5-tetrahydro-1,5,12-triazabenzo[4,5]cycloocta[1,2,3-cd]indene] are 78 nM and 150 nM.
In the same order, the values of `CN(C)C(=O)CN1CC=C(c2[nH]c3nccc4c3c2CCN(C)c2ccc(F)cc2-4)CC1` [Example 129, 2-[4-(8-fluoro-5-methyl-1,3,4,5-tetrahydro-1,5,12-triazabenzo[4,5]cycloocta[1,2,3-cd]inden-2-yl)-3,6-dihydropyridin-1(2H)-yl]-N,N-dimethylacetamide] are 67 nM and 130 nM.
Take `CN1Cc2c(C3=CCN([C@H]4CC[C@H](CC(=O)O)CC4)CC3)[nH]c3nccc(c23)-c2cc(F)ccc21` [Example 130, {trans-4-[4-(10-fluoro-7-methyl-6,7-dihydro-4H-3,4,7-triazadibenzo[cd,f]azulen-5-yl)-3,6-dihydropyridin-1(2H)-yl]cyclohexyl}acetic acid]: the values for the IC50 in test [1] and in test [2] (setting [3]) were 64 nM and 70 nM, respectively.
Taken in the same sequence, the figures for `CN1Cc2c(C3=CCN(S(C)(=O)=O)CC3)[nH]c3nccc(c23)-c2cc(F)c(F)cc21` [Example 131, 9,10-difluoro-7-methyl-5-[1-(methylsulfonyl)-1,2,3,6-tetrahydropyridin-4-yl]-6,7-dihydro-4H-3,4,7-triazadibenzo[cd,f]azulene] were 36 nM and 79 nM.
Taken in the same sequence, the figures for `CN(C)C(=O)CN1CC=C(c2[nH]c3nccc4c3c2CN(C)c2cc(F)c(F)cc2-4)CC1` [Example 132, 2-[4-(9,10-difluoro-7-methyl-6,7-dihydro-4H-3,4,7-triazadibenzo[cd,f]azulen-5-yl)-3,6-dihydropyridin-1(2H)-yl]-N,N-dimethylacetamide] were 40 nM and 14 nM.
In the same order, the values of `COC(=O)C[C@H]1CC[C@@H](N2CC=C(c3[nH]c4nccc5c4c3CN(C)c3cc(F)c(F)cc3-5)CC2)CC1` [Example 134, methyl{cis-4-[4-(9,10-difluoro-7-methyl-6,7-dihydro-4H-3,4,7-triazadibenzo[cd,f]azulen-5-yl)-3,6-dihydropyridin-1(2H)-yl]cyclohexyl}acetate] are 47 nM and 310 nM.
In the case of `CN1Cc2c(C3=CCNCC3)[nH]c3nccc(c23)-c2cccnc21` [Example 135, 7-methyl-5-(1,2,3,6-tetrahydropyridin-4-yl)-6,7-dihydro-4H-3,4,7,8-tetraazadibenzo[cd,f]azulene], the values for the IC50 in test [1] and in test [2] (setting [3]) were 63 nM and 76 nM, respectively.

As usually defined, the IC50 is the midpoint of a concentration-inhibition curve. A higher IC50 goes with lower potency.
